Assay results reported in ChEMBL document CHEMBL4808246 (Bioorg Med Chem, 2021).

Assays:
[1] = target: T1, Prostaglandin G/H synthase 2 (Homo sapiens, UniProt P35354); assay: Inhibition of human recombinant COX-2 assessed as production of PGE2 using arachidonic acid as a substrate preincubated for 60 mins followed by substrate addition and measured after 2 mins by ELISA analysis
T1 sequence (P35354 whole entry): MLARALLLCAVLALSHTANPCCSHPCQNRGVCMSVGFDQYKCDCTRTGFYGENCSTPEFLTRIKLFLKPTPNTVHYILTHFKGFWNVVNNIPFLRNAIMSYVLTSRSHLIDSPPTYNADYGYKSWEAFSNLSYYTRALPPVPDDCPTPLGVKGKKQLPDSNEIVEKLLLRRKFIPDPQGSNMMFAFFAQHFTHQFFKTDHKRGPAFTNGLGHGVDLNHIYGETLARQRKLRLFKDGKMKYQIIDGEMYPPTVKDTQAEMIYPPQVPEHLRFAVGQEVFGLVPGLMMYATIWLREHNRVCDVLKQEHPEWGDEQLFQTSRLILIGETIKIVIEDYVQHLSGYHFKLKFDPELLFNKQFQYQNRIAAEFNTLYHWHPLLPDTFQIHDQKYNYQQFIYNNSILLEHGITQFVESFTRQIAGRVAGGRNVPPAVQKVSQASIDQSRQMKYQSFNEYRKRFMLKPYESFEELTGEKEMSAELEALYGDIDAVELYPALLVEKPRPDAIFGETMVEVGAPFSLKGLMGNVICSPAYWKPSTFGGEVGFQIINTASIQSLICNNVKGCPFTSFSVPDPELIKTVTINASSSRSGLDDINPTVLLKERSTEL

[2] = target: T2, Prostaglandin G/H synthase 1 (Ovis aries) (UniProt P05979); assay: Inhibition of ovine COX-1 assessed as production of PGE2 using arachidonic acid as a substrate preincubated for 60 mins at 100 uM followed by substrate addition and measured after 2 mins by ELISA analysis relative to control; conditions: time 62.0 min
T2 sequence (whole entry): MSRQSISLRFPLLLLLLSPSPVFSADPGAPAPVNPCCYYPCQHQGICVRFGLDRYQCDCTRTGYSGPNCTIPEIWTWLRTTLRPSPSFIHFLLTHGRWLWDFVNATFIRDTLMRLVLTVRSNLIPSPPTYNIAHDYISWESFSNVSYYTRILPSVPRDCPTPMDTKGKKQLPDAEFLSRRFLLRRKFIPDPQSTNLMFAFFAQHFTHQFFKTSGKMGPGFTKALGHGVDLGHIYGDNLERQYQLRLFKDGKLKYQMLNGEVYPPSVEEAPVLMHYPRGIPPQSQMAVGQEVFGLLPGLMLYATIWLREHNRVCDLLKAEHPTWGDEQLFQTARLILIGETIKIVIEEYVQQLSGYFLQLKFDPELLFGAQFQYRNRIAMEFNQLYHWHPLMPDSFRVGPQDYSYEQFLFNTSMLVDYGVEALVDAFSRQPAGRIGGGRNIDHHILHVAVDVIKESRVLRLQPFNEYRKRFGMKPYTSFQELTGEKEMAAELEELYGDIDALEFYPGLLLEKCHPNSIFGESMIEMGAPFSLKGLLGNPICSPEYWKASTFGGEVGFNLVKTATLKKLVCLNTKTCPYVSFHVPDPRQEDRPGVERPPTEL

[3] = target: T2, Prostaglandin G/H synthase 1 (Ovis aries); assay: Inhibition of ovine COX-1 assessed as production of PGE2 using arachidonic acid as a substrate preincubated for 60 mins at 10 uM followed by substrate addition and measured after 2 mins by ELISA analysis relative to control
[4] = target: T2, Prostaglandin G/H synthase 1 (Ovis aries); assay: Inhibition of ovine COX-1 assessed as production of PGE2 using arachidonic acid as a substrate preincubated for 60 mins at 1 uM followed by substrate addition and measured after 2 mins by ELISA analysis relative to control
[5] = target: T2, Prostaglandin G/H synthase 1 (Ovis aries); assay: Inhibition of ovine COX-1 assessed as production of PGE2 using arachidonic acid as a substrate preincubated for 60 mins at 0.1 uM followed by substrate addition and measured after 2 mins by ELISA analysis relative to control
[6] = Solubility of the compound in water; type: physicochemical; conditions: buffer
Mus musculus [7] = assay: Antiinflammatory activity in mouse xylene induced ear edema model assessed as ear weight difference at 30 mg/kg, po once daily administered for 3 days prior to xylene stimulation and measured after 30 mins (reference value: 13.64 =/- 2.55 mg); type: functional; conditions: time 3 day
Mus musculus [8] = assay: Antiinflammatory activity in mouse xylene induced ear edema model assessed as inhibition of auricular edemas at 30 mg/kg, po once daily administered for 3 days prior to xylene stimulation and measured after 30 mins relative to control; type: functional; conditions: 72 h, time 3 day
Mus musculus [9] = assay: Analgesic activity in mouse model of acetic-acid induced writhing assessed as number of writhes at 30 mg/kg, po once daily administered for 3 days prior to acetic acid injection measured after 20 mins (reference value: 29.13+/-9.36); type: functional; conditions: time 3 day
Mus musculus [10] = assay: Analgesic activity in mouse model of acetic-acid induced writhing assessed as inhibition of writhing at 30 mg/kg, po once daily administered for 3 days prior to acetic acid injection measured after 20 mins relative to control; type: functional; conditions: 72 h, time 3 day
[11] = target: T3, Prostaglandin G/H synthase 1 (Ovis aries, UniProt P05979); assay: Inhibition of ovine COX-1 assessed as production of PGE2 using arachidonic acid as a substrate preincubated for 60 mins followed by substrate addition and measured after 2 mins by ELISA analysis
T3 sequence (P05979 whole entry): T2 sequence (whole entry)

[12] = Selectivity index, ratio of IC50 for ovine COX-1 to IC50 for human COX-2

| Compound | IC50 [1] [nM] | inhibition [2] [%] | inhibition [3] [%] | inhibition [4] [%] | inhibition [5] [%] | solubility [6] | IC50 [11] [nM] | Ratio [12] | Activity (Mus musculus [7]) [mg] | inhibition in vivo at 30 mg/kg (Mus musculus [8]) [%] | Activity (Mus musculus [9]) | inhibition in vivo at 30 mg/kg (Mus musculus [10]) [%] |
| --- | --- | --- | --- | --- | --- | --- | --- | --- | --- | --- | --- | --- |
| Cc1cc(-c2ccccn2)nn1S(=O)(=O)Oc1ccccc1 | 100 | 29 | 29 | 39 | 25 | Insoluble |  |  | 12.1 | 11.3 | 24.75 | 15 |
| Cc1ccc(-c2cc(C)n(S(=O)(=O)Oc3ccccc3I)n2)cc1 | 92 | 19 | 14 | 9 | 4 |  | > 100000 | > 1090 |  |  |  |  |
| CCc1ccc(-c2cc(C)n(S(=O)(=O)Oc3ccccc3)n2)cc1 |  |  |  | -1 | 11 | Insoluble |  |  | 10.76 | 21.1 | 15.13 | 48.1 |
| Cc1cccc(-c2cc(C)n(S(=O)(=O)Oc3ccccc3)n2)c1 |  | 53 | 33 |  |  | Insoluble | 72300 |  | 12.46 | 8.7 | 16.38 | 43.8 |
| Cc1ccc(-c2cc(-c3ccccc3)n(S(=O)(=O)Oc3ccccc3)n2)cc1 |  | 6 | 1 | -3 | 10 |  |  |  |  |  |  |  |
| Cc1ccc(-c2cc(C(C)C)n(S(=O)(=O)Oc3ccccc3)n2)cc1 |  | 21 | 47 | 39 | 20 |  | 18100 |  |  |  |  |  |
| Cc1ccccc1-c1cc(C)n(S(=O)(=O)Oc2ccccc2)n1 | 11100 | 42 | 55 | 63 | 65 |  |  |  |  |  |  |  |
| CC(COCCOCCOCCOCCOCCOCCOCCOCCOCCOCCOCCOCCOCCOCCOCCOCCOCCOCCOCCOCCOCCOCCOCCOCCOCCOCCOCCOCCOCCOCCOCCOCCOCCOCCOCCOCCOCCOCCO)OCC(C)OCC(C)OCC(C)OCC(C)OCC(C)OCC(C)OCC(C)OCC(C)OCC(C)OCC(C)OCC(C)OCC(C)OCC(C)OCC(C)OCC(C)OCC(C)OCC(C)OCC(C)OCC(C)OCC(C)OCC(C)OCC(C)OCC(C)OCC(C)OCC(C)OCC(C)OCC(C)OCC(C)OCC(C)OCCOCCOCCOCCOCCOCCOCCOCCOCCOCCOCCOCCOCCOCCOCCOCCOCCOCCOCCOCCOCCOCCOCCOCCOCCOCCOCCOCCOCCOCCOCCOCCOCCOCCOCCOCCOCCOCCO (stereo not drawn) |  |  |  |  |  | Insoluble |  |  | 13.64 | 0 | 29.13 | 0 |
| Cc1cc(-c2ccc(Cl)cc2)nn1S(=O)(=O)Oc1ccccc1 |  | 43 | 20 | 18 | 16 |  | > 100000 |  |  |  |  |  |
| Cc1cc(-c2cccc(Cl)c2)nn1S(=O)(=O)Oc1ccccc1 | 110 | 14 | 5 | 17 | 8 | Insoluble |  |  | 8.18 | 10 | 23.63 | 18.9 |
| Cc1ccc(-c2cc(C)n(S(=O)(=O)Oc3ccc(C)c(C)c3)n2)cc1 |  | 30 | 31 | 30 | 18 |  | > 100000 |  |  |  |  |  |
| Cc1cc(-c2ccccc2)nn1S(=O)(=O)Oc1ccccc1C(F)(F)F | > 100000 |  |  |  |  |  |  |  |  |  |  |  |
| Cc1cc(-c2ccncc2)nn1S(=O)(=O)Oc1ccccc1 |  | 61 | 43 | 40 | 36 |  |  |  |  |  |  |  |
| Cc1cc(-c2ccc(C(F)(F)F)cc2)nn1S(=O)(=O)Oc1ccccc1 | < 10 | 22 | 18 | 32 | 33 | Insoluble |  |  | 8.75 | 35.9 | 21.63 | 25.8 |
| Cc1cc(-c2ccc3ccccc3c2)nn1S(=O)(=O)Oc1ccccc1 |  | 27 | 13 | 7 | 4 |  |  |  |  |  |  |  |
| Cc1cc(-c2ccccc2Cl)nn1S(=O)(=O)Oc1ccccc1 |  | 60 | 55 | 55 | 61 |  |  |  |  |  |  |  |

Now from value to molecule, other results behind:

| IC50 [1] [nM] | inhibition [2] [%] | inhibition [3] [%] | inhibition [4] [%] | inhibition [5] [%] | solubility [6] | IC50 [11] [nM] | Ratio [12] | Compound | Activity (Mus musculus [7]) [mg] | inhibition in vivo at 30 mg/kg (Mus musculus [8]) [%] | Activity (Mus musculus [9]) | inhibition in vivo at 30 mg/kg (Mus musculus [10]) [%] |
| --- | --- | --- | --- | --- | --- | --- | --- | --- | --- | --- | --- | --- |
|  | 38 | 33 | 24 | 18 |  | > 100000 |  | Cc1cc(-c2cccs2)nn1S(=O)(=O)Oc1ccccc1 |  |  |  |  |
| 5.8 | 83 | 80 | 56 | 51 |  | 90 | 16 | Cc1cc(-c2ccccn2)nn1S(=O)(=O)Oc1ccc(Cl)cc1 |  |  |  |  |
| 200 | 70 | 71 | 68 | 45 |  | 140 | 1 | Cc1cc(-c2ccc(Br)cc2)nn1S(=O)(=O)Oc1ccccc1 |  |  |  |  |
| 31 |  |  |  | 47 | Insoluble |  |  | Cc1cc(-c2ccco2)nn1S(=O)(=O)Oc1ccccc1 | 11.93 | 12.5 | 16.75 | 42.5 |
|  | 34 | 24 | 23 | 19 |  |  |  | Cc1cc(-c2cccnc2)nn1S(=O)(=O)Oc1ccccc1 |  |  |  |  |
|  | 30 | 29 | 21 | 19 |  | > 100000 |  | COc1ccc(-c2cc(C)n(S(=O)(=O)Oc3ccccc3)n2)cc1 |  |  |  |  |
| > 10000 | -2 |  |  |  |  |  |  | Cc1cc(-c2ccc(F)cc2)nn1S(=O)(=O)Oc1ccccc1 |  |  |  |  |
| < 10 | 68 | 44 | 36 | 27 | Insoluble | 9380 | > 938 | O=S(=O)(Oc1ccccc1)n1nc(-c2ccccc2)cc1-c1ccccc1 | 10.13 | 25.7 | 17.75 | 39.1 |
